Test results: ChEMBL document CHEMBL1124446, “Synthesis of some novel potent and selective catechol O-methyltransferase inhibitors” (J Med Chem, 1989)

Tests used:
[1] = biological target: T1, Catechol O-methyltransferase (Rattus norvegicus, UniProt P22734); assay: In vitro inhibitory activity against catechol O-methyltransferase of rat brain using 3,4-dihydroxybenzoic acid as the substrate.
T1 sequence (P22734 whole entry): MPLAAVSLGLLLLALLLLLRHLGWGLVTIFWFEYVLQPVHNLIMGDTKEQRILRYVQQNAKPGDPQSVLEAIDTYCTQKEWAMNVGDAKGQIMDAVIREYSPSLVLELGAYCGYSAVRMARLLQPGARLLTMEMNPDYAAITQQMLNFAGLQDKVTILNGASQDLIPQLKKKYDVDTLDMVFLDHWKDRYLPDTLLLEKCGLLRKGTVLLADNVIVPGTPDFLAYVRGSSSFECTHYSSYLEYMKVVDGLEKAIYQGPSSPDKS

[2] = biological target: T2, Tyrosine 3-monooxygenase (Bos taurus, UniProt P17289); assay: Inhibitory activity against the tyrosine hydroxylase
T2 sequence (P17289 whole entry): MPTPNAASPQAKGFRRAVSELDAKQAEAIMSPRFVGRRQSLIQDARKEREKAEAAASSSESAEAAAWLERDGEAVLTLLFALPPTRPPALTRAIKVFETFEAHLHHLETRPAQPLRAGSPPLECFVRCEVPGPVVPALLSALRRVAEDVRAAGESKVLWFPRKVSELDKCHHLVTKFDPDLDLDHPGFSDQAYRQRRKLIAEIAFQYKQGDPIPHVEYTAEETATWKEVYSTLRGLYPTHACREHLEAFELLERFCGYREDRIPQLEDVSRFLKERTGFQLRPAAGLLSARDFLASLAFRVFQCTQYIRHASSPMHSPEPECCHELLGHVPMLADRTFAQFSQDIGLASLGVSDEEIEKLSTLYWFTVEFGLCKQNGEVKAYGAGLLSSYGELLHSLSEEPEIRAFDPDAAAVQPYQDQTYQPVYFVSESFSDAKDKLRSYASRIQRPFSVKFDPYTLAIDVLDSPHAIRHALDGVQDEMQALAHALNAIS

[3] = biological target: T3, Aromatic-L-amino-acid decarboxylase (Sus scrofa, UniProt P80041); assay: Inhibitory activity against the dopamine decarboxylase
T3 sequence (P80041 whole entry): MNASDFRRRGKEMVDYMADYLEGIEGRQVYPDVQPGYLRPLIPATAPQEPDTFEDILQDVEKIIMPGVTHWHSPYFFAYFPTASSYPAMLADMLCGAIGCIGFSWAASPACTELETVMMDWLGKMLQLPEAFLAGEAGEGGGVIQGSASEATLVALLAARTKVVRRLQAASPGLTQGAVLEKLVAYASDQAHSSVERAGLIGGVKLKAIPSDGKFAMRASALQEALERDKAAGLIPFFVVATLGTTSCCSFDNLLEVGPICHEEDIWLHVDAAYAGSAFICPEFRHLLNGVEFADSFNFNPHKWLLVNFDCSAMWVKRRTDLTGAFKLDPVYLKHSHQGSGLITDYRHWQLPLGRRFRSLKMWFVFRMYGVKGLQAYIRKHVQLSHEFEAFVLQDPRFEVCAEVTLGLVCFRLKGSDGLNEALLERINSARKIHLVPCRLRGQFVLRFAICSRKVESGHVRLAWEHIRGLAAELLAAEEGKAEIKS

[4] = biological target: T4, Dopamine beta-hydroxylase (Homo sapiens, UniProt P09172); assay: Inhibitory activity against the dopamine beta hydroxylase
T4 sequence (P09172 whole entry): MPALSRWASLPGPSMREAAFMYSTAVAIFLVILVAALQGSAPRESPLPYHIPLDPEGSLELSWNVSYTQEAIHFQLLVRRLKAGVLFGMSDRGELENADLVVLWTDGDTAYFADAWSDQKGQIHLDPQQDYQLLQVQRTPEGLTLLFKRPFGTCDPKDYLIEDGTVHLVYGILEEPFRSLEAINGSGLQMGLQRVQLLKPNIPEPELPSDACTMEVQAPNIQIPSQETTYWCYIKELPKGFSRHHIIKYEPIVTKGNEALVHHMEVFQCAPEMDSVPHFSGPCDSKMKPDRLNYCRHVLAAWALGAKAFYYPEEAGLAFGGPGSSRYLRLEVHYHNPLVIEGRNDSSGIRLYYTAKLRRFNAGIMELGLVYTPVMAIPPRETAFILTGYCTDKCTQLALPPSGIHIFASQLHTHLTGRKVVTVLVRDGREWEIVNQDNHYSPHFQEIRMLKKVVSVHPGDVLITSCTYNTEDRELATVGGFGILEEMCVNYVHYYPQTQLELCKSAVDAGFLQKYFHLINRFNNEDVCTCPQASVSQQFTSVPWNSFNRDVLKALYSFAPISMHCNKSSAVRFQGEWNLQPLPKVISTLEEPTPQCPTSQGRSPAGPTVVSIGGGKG

[5] = biological target: T5, Amine oxidase [flavin-containing] B (Rattus norvegicus, UniProt P19643); assay: Inhibitory activity against the Monoamine oxidase B
T5 sequence (P19643 whole entry): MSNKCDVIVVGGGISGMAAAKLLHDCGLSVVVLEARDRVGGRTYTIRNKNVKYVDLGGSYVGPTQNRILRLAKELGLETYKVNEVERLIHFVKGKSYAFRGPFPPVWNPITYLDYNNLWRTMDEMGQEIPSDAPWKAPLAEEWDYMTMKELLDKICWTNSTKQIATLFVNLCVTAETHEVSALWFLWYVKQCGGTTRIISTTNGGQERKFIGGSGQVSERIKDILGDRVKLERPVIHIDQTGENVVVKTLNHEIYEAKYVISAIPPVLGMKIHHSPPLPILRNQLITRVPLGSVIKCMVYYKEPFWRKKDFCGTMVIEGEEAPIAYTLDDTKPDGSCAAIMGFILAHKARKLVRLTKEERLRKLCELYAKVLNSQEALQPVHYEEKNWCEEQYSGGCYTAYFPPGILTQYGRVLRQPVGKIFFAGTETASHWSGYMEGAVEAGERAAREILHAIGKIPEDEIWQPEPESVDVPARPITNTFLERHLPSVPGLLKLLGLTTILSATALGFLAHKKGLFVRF

[6] = biological target: T6, Amine oxidase [flavin-containing] A (Mus musculus, UniProt Q64133); assay: Inhibitory activity against the Monoamine oxidase A
T6 sequence (Q64133 whole entry): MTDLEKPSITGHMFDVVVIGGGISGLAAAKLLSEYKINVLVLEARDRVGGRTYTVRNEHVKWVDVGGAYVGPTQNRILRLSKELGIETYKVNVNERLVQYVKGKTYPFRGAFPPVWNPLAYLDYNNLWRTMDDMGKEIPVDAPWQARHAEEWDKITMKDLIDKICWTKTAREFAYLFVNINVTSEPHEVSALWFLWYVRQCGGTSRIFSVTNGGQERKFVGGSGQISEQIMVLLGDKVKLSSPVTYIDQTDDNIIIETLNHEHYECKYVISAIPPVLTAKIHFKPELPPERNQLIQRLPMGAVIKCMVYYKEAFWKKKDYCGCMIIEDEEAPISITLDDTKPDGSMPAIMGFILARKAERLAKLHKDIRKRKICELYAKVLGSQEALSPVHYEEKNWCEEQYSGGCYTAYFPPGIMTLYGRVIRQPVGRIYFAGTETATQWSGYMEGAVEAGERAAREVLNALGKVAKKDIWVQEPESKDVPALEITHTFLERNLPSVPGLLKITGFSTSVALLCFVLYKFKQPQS

[7] = Inhibitory activity against Phenol sulfotransferase
[8] = organism: Rattus norvegicus; assay: Compound was tested for acute oral toxicity in Wistar rats; format: organism-based; conditions: in vivo
[9] = system: Rattus norvegicus; assay: Inhibition of formation of 3OMD in rat serum by 80 %, when compound was administered in combination with L-Dopa and carbidopa; format: functional

| SMILES | IC50 [1] | other results |
| --- | --- | --- |
| N#CC(C#N)=Cc1cc(O)c(O)c([N+](=O)[O-])c1 | 0.02 µM | – |
| O=Cc1cc(O)c(O)c(C(F)(F)F)c1 | 2.3 µM | – |
| CC(=O)/C(C)=C/c1cc(O)c(O)c([N+](=O)[O-])c1 | 0.012 µM | – |
| N#Cc1cc(C(=O)NC23CC4CC(CC(C4)C2)C3)cc(O)c1O | 0.09 µM | – |
| CN(C)C(=O)/C(C#N)=C/c1cc(O)c(O)c([N+](=O)[O-])c1 | 0.018 µM | – |
| O=C(NC12CC3CC(CC(C3)C1)C2)c1cc(O)c(O)c(Cl)c1 | 0.4 µM | – |
| COc1cc(C(=O)/C=C/c2cc(O)c(O)c([N+](=O)[O-])c2)cc(OC)c1OC | 0.005 µM | IC50 [2]: 21 µM; IC50 [3]: > 50 µM; IC50 [4]: > 50 µM; IC50 [5]: > 50 µM; IC50 [6]: > 50 µM |
| O=C(O)CCCCc1cc(O)c(O)c(Cl)c1 | 8 µM | – |
| CC(=O)c1cc(O)c(O)c([N+](=O)[O-])c1 | 0.016 µM | IC50 [7]: 125 µM |
| O=C(NC12CC3CC(CC(C3)C1)C2)c1ccc(O)c(O)c1Cl | 12 µM | – |
| N#Cc1cc(C=O)cc(O)c1O | 0.16 µM | – |
| O=C(NC12CC3CC(CC(C3)C1)C2)c1cc(O)c(O)cc1Cl | 2.7 µM | – |
| N#Cc1cc(O)c(O)c([N+](=O)[O-])c1 | 0.03 µM | – |
| O=C(/C=C/c1cc(O)c(O)c([N+](=O)[O-])c1)c1ccccc1 | 0.006 µM | IC50 [2]: 50 µM; IC50 [3]: > 50 µM; IC50 [4]: > 50 µM; IC50 [5]: > 50 µM; IC50 [6]: > 50 µM |
| O=C(O)c1cc(O)c(O)c([N+](=O)[O-])c1 | 0.62 µM | – |
| O=C1/C(=C/c2cc(O)c(O)c([N+](=O)[O-])c2)CC/C1=C\c1cc(O)c(O)c([N+](=O)[O-])c1 | 0.003 µM | – |
| O=C(NC12CC3CC(CC(C3)C1)C2)c1cc(O)c(O)c([N+](=O)[O-])c1 | 0.019 µM | – |
| O=C(NC12CC3CC(CC(C3)C1)C2)c1cc(O)c(O)cc1[N+](=O)[O-] | 1.1 µM | – |
| CCOC(=O)/C(C#N)=C/c1cc(O)c(O)c([N+](=O)[O-])c1 | 0.05 µM | – |
| CC(C)C(=O)c1ccc(O)c(O)c1 | 6 µM | IC50 [2]: 24 µM; IC50 [3]: > 50 µM; IC50 [4]: > 50 µM; IC50 [5]: > 50 µM; IC50 [6]: > 50 µM |
| O=C(O)CCCCc1cc(O)c(O)c([N+](=O)[O-])c1 | 0.09 µM | – |
| CS(=O)(=O)c1cc(C=O)cc(O)c1O | 20 µM | – |
| CC(=O)C(=Cc1cc(O)c(O)c(C(F)(F)F)c1)C(C)=O | 1.5 µM | – |
| O=[N+]([O-])c1cc(Cl)cc(O)c1O | 0.025 µM | – |
| O=[N+]([O-])c1cc(CO)cc(O)c1O | 0.18 µM | – |
| O=Cc1cc(O)c(O)c(C=O)c1 | 0.16 µM | – |
| O=Cc1cc(O)c(O)c([N+](=O)[O-])c1 [3,4-DIHYDROXY-5-NITROBENZALDEHYDE] | 0.024 µM | – |
| O=[N+]([O-])c1cc(O)c(O)c([N+](=O)[O-])c1 [3,5-DINITROCATECHOL (OR-486)] | – | IC50 [7]: 150 µM |
| CC(=O)C(=Cc1cc(O)c(O)c([N+](=O)[O-])c1)C(C)=O [NITECAPONE] | 0.018 µM | IC50 [7]: 210 µM; Toxicity [8]: 2500 mg/kg; Oral dose [9]: 30 mg/kg |
